Assay results taken from the NIST ThermoML archive (doi:10.1016/j.jct.2019.105883).

Test: xn = mol fraction of the nth substance listed
Details: 101.3 kPa, Liquid; for viscosity: Concentric cylinders viscometry; for mass density: Vibrating tube method

CCN.Cl [ethylammonium chloride] + CC(N)=O
Details	mass density, 313.2 K [kg/m3]	mass density, 323.2 K [kg/m3]	mass density, 333.2 K [kg/m3]	mass density, 343.2 K [kg/m3]	mass density, 353.2 K [kg/m3]	viscosity, 313.2 K [mPa·s]	viscosity, 323.2 K [mPa·s]	viscosity, 333.2 K [mPa·s]	viscosity, 343.2 K [mPa·s]	viscosity, 353.2 K [mPa·s]
x1 = 0.252	1041	1034.3	1027.6	1020.9	1014.2	32.6	27.8	21.9	18.4	15.2
x1 = 0.337	1042.8	1036.4	1030	1023.7	1017.3	58	39.2	29.1	23.3	18.6
x1 = 0.5	1043.8	1037.9	1032	1026.2	1020.4	71.5	48.4	35.8	28.2	23.5
